Usually pIC50 stands for the IC50 on a negative log10 scale, so that one unit is a factor of ten.

Data on 8 compounds can be found in US5498775A, “Polyanionic benzylglycosides as inhibitors of smooth muscle cell proliferation” (American Home Products Corporation, priority 1994, dated 1996).

The test system of data set [1] is normal human plasma. Briefly: Anticoagulant activity, partial thromboplastin time (APTT) assay. The data set is classed as biochemical. The note with it: for Anticoagulation Activity (APTT) Relative to Heparin: ratio >1 indicates weaker activity relative to heparin on a μg/mL comparison. Here is the method:
A BBL Fibrometer automatic precesion coagulation timer utilizing a 0.3 mL probe was employed. An Ellagic acid activated partial thromboplastin was used for these experiments. This reagent was added to human citrated plasma equilibrated at 37° C. in a plastic well in the clot timer. Calcium at 37° C. was added, the clot timer was started and the time for fibrin clot formation (in seconds) was recorded. […] Clotting tests at all concentrations were run in triplicate. Analysis of variance for a randomized block design was used to determine the significance of differences observed in the clotting times.

Data set [2] has as its system Porcine Smooth Muscle Cell. Briefly: Porcine smooth muscle cell antiproliferation, 3H thymidine incorporation. It is filed as cell-based. The note with it: for pIC50: porcine aortic smooth muscle cells, 3H thymidine incorporation.
Experimental: Cells were assayed in early passage (generally passage 3-7) at sub-confluent conditions. […] At sub-confluence, the cells were placed in a defined serum free medium (AIM-V; Gibco) for 24-48 h prior to initiating the experimental protocol.
At the completion of the experiment, plates were placed on ice, washed three times with ice cold PBS and incubated in ice cold 10% trichloroacetic acid (TCA) for 30 min to remove acid soluble proteins. Solution was transferred to scintillation vials containing 0.4N HCl (500 μL/vial to neutralize NaOH) and each well was rinsed two times with water (500 μL) for a total volume of 2 mL/vial.
Data was obtained, in triplicate, for both control and experimental samples. […] Experimental data was obtained from cells maximally stimulated with growth factor or serum and treated with compound. Data was expressed as a percent of control from which IC50 s could be determined.
Data set [3] concerns human endothelial cell. Briefly: Effect on endothelial cell growth vs. smooth muscle cell proliferation. It is filed as cell-based. The note with it: driven by 2% FBS, at doses inhibitory towards human SMC proliferation driven by 10% FBS; FIG. 1. An excerpt: The ability of the compounds of the present invention to inhibit smooth muscle cell proliferation and modulate endothelial cell growth was established using isolated aortic cells obtained from commercial sources or, for certain species, prepared in-house. Cell lines used in this study include human and porcine aortic smooth muscle cells and human aortic endothelial cells. Human aortic cell lines were obtained from Clonetics Corporation (San Diego).
B. Effects of compounds on cell proliferation using ^3 H Thymidine incorporation
Cells were assayed in early passage (generally passage 3-7) at sub-confluent conditions. Cultures were grown in 16 mm (24 well) multi-well culture dishes in media 199 supplemented with 10% fetal bovine serum and 2% antibiotic/antimycotic. At sub-confluence, the cells were placed in a defined serum free medium (AIM-V; Gibco) for 24-48 h prior to initiating the experimental protocol.
Growth factor and serum stimulations were optimized for each cell type.
Compounds were added to each well at 50 fold dilution (20 μL/well) and the plates were incubated for 24-36 h at 37° C. in 5% CO2. […] Compounds were routinely assayed at 1, 10, and 100 μM. […]
Data was obtained, in triplicate, for both control and experimental samples. […] Data was expressed as a percent of control from which IC50 s could be determined. […]

pIC50: −log10 of the molar value. Counter-ions that a name gives are not always drawn.

On to `O=C(Nc1cc(CO[C@@H]2O[C@H](COS(=O)(=O)O)[C@@H](O[C@@H]3O[C@H](COS(=O)(=O)O)[C@@H](OS(=O)(=O)O)[C@H](OS(=O)(=O)O)[C@H]3OS(=O)(=O)O)[C@H](OS(=O)(=O)O)[C@H]2OS(=O)(=O)O)cc(CO[C@@H]2O[C@H](COS(=O)(=O)O)[C@@H](O[C@@H]3O[C@H](COS(=O)(=O)O)[C@@H](OS(=O)(=O)O)[C@H](OS(=O)(=O)O)[C@H]3OS(=O)(=O)O)[C@H](OS(=O)(=O)O)[C@H]2OS(=O)(=O)O)c1)c1ccc(-c2ccc(C(=O)Nc3cc(CO[C@@H]4O[C@H](COS(=O)(=O)O)[C@@H](O[C@@H]5O[C@H](COS(=O)(=O)O)[C@@H](OS(=O)(=O)O)[C@H](OS(=O)(=O)O)[C@H]5OS(=O)(=O)O)[C@H](OS(=O)(=O)O)[C@H]4OS(=O)(=O)O)cc(CO[C@@H]4O[C@H](COS(=O)(=O)O)[C@@H](O[C@@H]5O[C@H](COS(=O)(=O)O)[C@@H](OS(=O)(=O)O)[C@H](OS(=O)(=O)O)[C@H]5OS(=O)(=O)O)[C@H](OS(=O)(=O)O)[C@H]4OS(=O)(=O)O)c3)cc2)cc1` [EXAMPLE 15, Biphenyl-4,4'-dicarboxylic Acid Bis{[3,5-bis(hepta-O-sulfato-β-D-cellobiosyloxymethyl)phenyl]amide}Octacosasodium Salt], for which the “Anticoagulation Activity (APTT) Relative to Heparin” value in data set [1] is 2.0-2.3.
For the compound `O=C(Nc1cc(CO[C@@H]2O[C@H](COS(=O)(=O)[O-])[C@@H](O[C@@H]3O[C@H](COS(=O)(=O)[O-])[C@H](OS(=O)(=O)[O-])[C@H](OS(=O)(=O)[O-])[C@H]3OS(=O)(=O)[O-])[C@H](OS(=O)(=O)[O-])[C@H]2OS(=O)(=O)[O-])cc(CO[C@@H]2O[C@H](COS(=O)(=O)[O-])[C@@H](O[C@@H]3O[C@H](COS(=O)(=O)[O-])[C@H](OS(=O)(=O)[O-])[C@H](OS(=O)(=O)[O-])[C@H]3OS(=O)(=O)[O-])[C@H](OS(=O)(=O)[O-])[C@H]2OS(=O)(=O)[O-])c1)c1ccc(-c2ccc(C(=O)Nc3cc(CO[C@@H]4O[C@H](COS(=O)(=O)[O-])[C@@H](O[C@@H]5O[C@H](COS(=O)(=O)[O-])[C@H](OS(=O)(=O)[O-])[C@H](OS(=O)(=O)[O-])[C@H]5OS(=O)(=O)[O-])[C@H](OS(=O)(=O)[O-])[C@H]4OS(=O)(=O)[O-])cc(CO[C@@H]4O[C@H](COS(=O)(=O)[O-])[C@@H](O[C@@H]5O[C@H](COS(=O)(=O)[O-])[C@H](OS(=O)(=O)[O-])[C@H](OS(=O)(=O)[O-])[C@H]5OS(=O)(=O)[O-])[C@H](OS(=O)(=O)[O-])[C@H]4OS(=O)(=O)[O-])c3)cc2)cc1.[Na+].[Na+].[Na+].[Na+].[Na+].[Na+].[Na+].[Na+].[Na+].[Na+].[Na+].[Na+].[Na+].[Na+].[Na+].[Na+].[Na+].[Na+].[Na+].[Na+].[Na+].[Na+].[Na+].[Na+].[Na+].[Na+].[Na+].[Na+]` [EXAMPLE 16, Biphenyl-4,4'-dicarboxylic Acid Bis{[3,5-bis(hepta-O-sulfato-β-D-lactosyloxymethyl)phenyl]amide}Octacosasodium Salt], in data set [2], the pIC50 was 5.44. For the same compound, the “Anticoagulation Activity (APTT) Relative to Heparin” value in data set [1] worked out at 2.2.
On to `O=C(Nc1cc(CO[C@@H]2O[C@H](COS(=O)(=O)O)[C@@H](OS(=O)(=O)O)[C@H](OS(=O)(=O)O)[C@H]2OS(=O)(=O)O)cc(CO[C@@H]2O[C@H](COS(=O)(=O)O)[C@@H](OS(=O)(=O)O)[C@H](OS(=O)(=O)O)[C@H]2OS(=O)(=O)O)c1)c1ccc(-c2ccc(C(=O)Nc3cc(CO[C@@H]4O[C@H](COS(=O)(=O)O)[C@@H](OS(=O)(=O)O)[C@H](OS(=O)(=O)O)[C@H]4OS(=O)(=O)O)cc(CO[C@@H]4O[C@H](COS(=O)(=O)O)[C@@H](OS(=O)(=O)O)[C@H](OS(=O)(=O)O)[C@H]4OS(=O)(=O)O)c3)cc2)cc1` [EXAMPLE 17, Biphenyl-4,4'-dicarboxylic Acid Bis{[3,5-bis(tetra-O-sulfato-β-D-glucosyloxymethyl)phenyl]amide}Hexadecasodium Salt], for which the “Anticoagulation Activity (APTT), result in words” value in data set [1] (at 50 μg/mL) is reported as “insignificant activity”.
Regarding `O=C(Nc1cc(CO[C@@H]2O[C@H](COS(=O)(=O)O)[C@@H](O[C@H]3O[C@H](COS(=O)(=O)O)[C@@H](OS(=O)(=O)O)[C@H](OS(=O)(=O)O)[C@H]3OS(=O)(=O)O)[C@H](OS(=O)(=O)O)[C@H]2OS(=O)(=O)O)cc(CO[C@@H]2O[C@H](COS(=O)(=O)O)[C@@H](O[C@H]3O[C@H](COS(=O)(=O)O)[C@@H](OS(=O)(=O)O)[C@H](OS(=O)(=O)O)[C@H]3OS(=O)(=O)O)[C@H](OS(=O)(=O)O)[C@H]2OS(=O)(=O)O)c1)c1ccc(-c2ccc(C(=O)Nc3cc(CO[C@@H]4O[C@H](COS(=O)(=O)O)[C@@H](O[C@H]5O[C@H](COS(=O)(=O)O)[C@@H](OS(=O)(=O)O)[C@H](OS(=O)(=O)O)[C@H]5OS(=O)(=O)O)[C@H](OS(=O)(=O)O)[C@H]4OS(=O)(=O)O)cc(CO[C@@H]4O[C@H](COS(=O)(=O)O)[C@@H](O[C@H]5O[C@H](COS(=O)(=O)O)[C@@H](OS(=O)(=O)O)[C@H](OS(=O)(=O)O)[C@H]5OS(=O)(=O)O)[C@H](OS(=O)(=O)O)[C@H]4OS(=O)(=O)O)c3)cc2)cc1` [EXAMPLE 18], the “Anticoagulation Activity (APTT) Relative to Heparin” value in data set [1] is 2.1. In addition, in data set [3], the “effect on human endothelial cell growth” value is “enhance human endothelial cell growth”.
As to `O=C(CCC(=O)Nc1cc(CO[C@@H]2O[C@H](COS(=O)(=O)O)[C@@H](O[C@@H]3O[C@H](COS(=O)(=O)O)[C@@H](OS(=O)(=O)O)[C@H](OS(=O)(=O)O)[C@H]3OS(=O)(=O)O)[C@H](OS(=O)(=O)O)[C@H]2OS(=O)(=O)O)cc(CO[C@@H]2O[C@H](COS(=O)(=O)O)[C@@H](O[C@@H]3O[C@H](COS(=O)(=O)O)[C@@H](OS(=O)(=O)O)[C@H](OS(=O)(=O)O)[C@H]3OS(=O)(=O)O)[C@H](OS(=O)(=O)O)[C@H]2OS(=O)(=O)O)c1)Nc1cc(CO[C@@H]2O[C@H](COS(=O)(=O)O)[C@@H](O[C@@H]3O[C@H](COS(=O)(=O)O)[C@@H](OS(=O)(=O)O)[C@H](OS(=O)(=O)O)[C@H]3OS(=O)(=O)O)[C@H](OS(=O)(=O)O)[C@H]2OS(=O)(=O)O)cc(CO[C@@H]2O[C@H](COS(=O)(=O)O)[C@@H](O[C@@H]3O[C@H](COS(=O)(=O)O)[C@@H](OS(=O)(=O)O)[C@H](OS(=O)(=O)O)[C@H]3OS(=O)(=O)O)[C@H](OS(=O)(=O)O)[C@H]2OS(=O)(=O)O)c1` [EXAMPLE 22, N,N'-Bis[3,5-bis(hepta-O-sulfato-β-D-cellobiosyloxymethyl)phenyl]succinamide Octacosasodium Salt], in data set [1], the “Anticoagulation Activity (APTT) Relative to Heparin” value is 2.0.
Still for that read-out and setting: next, `O=C(Nc1cc(CO[C@@H]2O[C@H](COS(=O)(=O)O)[C@@H](O[C@@H]3O[C@H](COS(=O)(=O)O)[C@@H](OS(=O)(=O)O)[C@H](OS(=O)(=O)O)[C@H]3OS(=O)(=O)O)[C@H](OS(=O)(=O)O)[C@H]2OS(=O)(=O)O)cc(CO[C@@H]2O[C@H](COS(=O)(=O)O)[C@@H](O[C@@H]3O[C@H](COS(=O)(=O)O)[C@@H](OS(=O)(=O)O)[C@H](OS(=O)(=O)O)[C@H]3OS(=O)(=O)O)[C@H](OS(=O)(=O)O)[C@H]2OS(=O)(=O)O)c1)c1ccc(C(=O)Nc2cc(CO[C@@H]3O[C@H](COS(=O)(=O)O)[C@@H](O[C@@H]4O[C@H](COS(=O)(=O)O)[C@@H](OS(=O)(=O)O)[C@H](OS(=O)(=O)O)[C@H]4OS(=O)(=O)O)[C@H](OS(=O)(=O)O)[C@H]3OS(=O)(=O)O)cc(CO[C@@H]3O[C@H](COS(=O)(=O)O)[C@@H](O[C@@H]4O[C@H](COS(=O)(=O)O)[C@@H](OS(=O)(=O)O)[C@H](OS(=O)(=O)O)[C@H]4OS(=O)(=O)O)[C@H](OS(=O)(=O)O)[C@H]3OS(=O)(=O)O)c2)cc1` [EXAMPLE 23, N,N '-Bis[3,5-bis(hepta-O-sulfato-β-D-cellobiosyloxymethyl)phenyl]terephthalamide Octacosasodium Salt]: 2.0.
For `Cc1ccc(CO[C@@H]2O[C@H](COS(=O)(=O)O)[C@@H](OS(=O)(=O)O)[C@H](OS(=O)(=O)O)[C@H]2OS(=O)(=O)O)cc1NC(=O)CCC(=O)Nc1cc(CO[C@@H]2O[C@H](COS(=O)(=O)O)[C@@H](OS(=O)(=O)O)[C@H](OS(=O)(=O)O)[C@H]2OS(=O)(=O)O)ccc1C` [EXAMPLE 25, N,N'-Bis[2-methyl-5-(2,3,4,6-tetra-O-suifato-β-D-glucopyranosyloxymethyl)phenyl]succinamide Octasodium Salt], the inhibition at 50 µg/mL in data set [2] (Sus scrofa, read-out: Porcine Smooth Muscle Cell Antiproliferation, % Inhibition at 50 μg/mL) is 8%.
With “Decanedioic Acid Bis{[3,5-bis(hepta-O-sulfato-β-D-cellobiosyloxymethyl}phenyl]amide} Octacosasodium Salt [EXAMPLE 14]”, in data set [2], the negative-log IC50 (pIC50) was 5.52. In addition, the “Anticoagulation Activity (APTT) Relative to Heparin” value in data set [1] turned out to be 6.7.
